# Earlier results, collected in patent US8741809B2, “Liquid pyraclostrobin-containing crop protection formulations” (BASF SE, priority 2008, dated 2014).
# Settings: at 20° C.
row,Structure (SMILES),solubility of the respective solvent in water
1,CC(=O)c1ccccc1 [acetophenone],(5.5 g/l)
2,OCc1ccccc1 [benzyl alcohol],(39 g/l)
3,O=C1CCCCC1 [cyclohexanone],(24 g/l)
